Laboratory results: PubChem BioAssay (NCI)
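Cells were grown in 96-well plates and exposed to each compound for 48 hours at five concentrations; endpoints were interpolated linearly between bracketing concentrations, or set to the highest concentration if not reached. The concentration for full growth arrest is given as TGI.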

Key:
Experiment in all cases: growth of human tumour cells (NCI), 48 h
786-0 renal = tested on: 786-0 renal
A498 renal = tested on: A498 renal
A549 NSCLC = tested on: A549 NSCLC
ACHN renal = tested on: ACHN renal
CCRF-CEM leukemia = tested on: CCRF-CEM leukemia
COLO 205 colon = tested on: COLO 205 colon
DU-145 prostate = tested on: DU-145 prostate
EKVX NSCLC = tested on: EKVX NSCLC
HCT-116 colon = tested on: HCT-116 colon
HCT-15 colon = tested on: HCT-15 colon
HOP-62 NSCLC = tested on: HOP-62 NSCLC
HS 578T breast = tested on: HS 578T breast
HT29 colon = tested on: HT29 colon
IGROV1 ovarian = tested on: IGROV1 ovarian
K-562 leukemia = tested on: K-562 leukemia
KM12 colon = tested on: KM12 colon
LOX IMVI melanoma = tested on: LOX IMVI melanoma
M14 melanoma = tested on: M14 melanoma
MALME-3M melanoma = tested on: MALME-3M melanoma
MCF7 breast = tested on: MCF7 breast
MDA-MB-231 breast = tested on: MDA-MB-231 breast
MDA-MB-435 = tested on: MDA-MB-435
MDA-N = tested on: MDA-N
MOLT-4 leukemia = tested on: MOLT-4 leukemia
NCI-H226 lung = tested on: NCI-H226 lung
NCI-H23 lung = tested on: NCI-H23 lung
NCI/ADR-RES ovarian = tested on: NCI/ADR-RES ovarian
OVCAR-3 ovarian = tested on: OVCAR-3 ovarian
OVCAR-4 ovarian = tested on: OVCAR-4 ovarian
OVCAR-5 ovarian = tested on: OVCAR-5 ovarian
OVCAR-8 ovarian = tested on: OVCAR-8 ovarian
PC-3 prostate = tested on: PC-3 prostate
RPMI-8226 leukemia = tested on: RPMI-8226 leukemia
SF-268 CNS = tested on: SF-268 CNS
SF-295 CNS = tested on: SF-295 CNS
SK-MEL-2 melanoma = tested on: SK-MEL-2 melanoma
SK-MEL-28 melanoma = tested on: SK-MEL-28 melanoma
SK-MEL-5 melanoma = tested on: SK-MEL-5 melanoma
SK-OV-3 ovarian = tested on: SK-OV-3 ovarian
SN12C renal = tested on: SN12C renal
SNB-19 CNS = tested on: SNB-19 CNS
SNB-75 CNS = tested on: SNB-75 CNS
SR leukemia = tested on: SR leukemia
SW-620 colon = tested on: SW-620 colon
TK-10 renal = tested on: TK-10 renal
U251 CNS = tested on: U251 CNS
UACC-257 melanoma = tested on: UACC-257 melanoma
UACC-62 melanoma = tested on: UACC-62 melanoma
UO-31 renal = tested on: UO-31 renal
BT-549 breast = tested on: BT-549 breast
CAKI-1 renal = tested on: CAKI-1 renal
HL-60(TB) leukemia = tested on: HL-60(TB) leukemia
HOP-92 NSCLC = tested on: HOP-92 NSCLC
NCI-H460 lung = tested on: NCI-H460 lung
NCI-H522 lung = tested on: NCI-H522 lung
RXF 393 renal = tested on: RXF 393 renal
SF-539 CNS = tested on: SF-539 CNS

Measured: TGI

CCOP(=O)(OCC)C1CC(O)CN1OC(=O)C(C)(C)C (stereo unspecified)
not listed: BT-549 breast | CAKI-1 renal | HL-60(TB) leukemia | HOP-92 NSCLC | NCI-H460 lung | NCI-H522 lung | RXF 393 renal | SF-539 CNS
> 100 µM: all other assays above

OCC1OC(Oc2cc(O)cc(/C=C\c3ccc(O)cc3)c2)C(O)C(O)C1O (stereo unspecified)
not listed: COLO 205 colon | M14 melanoma | MALME-3M melanoma | NCI-H23 lung | SF-268 CNS
> 100 µM: all other assays above
